The text below walks through data of patent US20240293397A1 (H. Lundbeck A/S, priority 2010, published 2024).

Where a name gives a salt, the structure may show the parent alone. Read-outs that look alike come from different tables or passages of the source.

The nature of data set [1]: Properties of polymorphic forms and salts (stability, solubility, hygroscopicity). In kind it is physicochemical. Here is the method:
The polymorphic forms have different properties.
When a compound is administered as an oral drop formulation, a few drops of a concentrated, liquid formulation of said drug is measured out and added to a glass of water, juice or the like that the patient drinks. As an example, the antidepressant cipramil is provided as an oral drop formulation at 40 mg/ml.

A short description of data set [2]: Long-term effects on body weight, relapse prevention study in patients with major depressive disorder. In kind it is in vivo, human. The following applies: for Δ weight / ≥7% weight gain: MDD. An excerpt: The recruitment of patients took place over time, and since the end of the study was defined by the last patient having completed the 24 weeks study, some patients received up to 64 weeks double-blind placebo-controlled treatment. This study is also reported in poster NR4-14 presented at the 164th Annual Meeting of the American Psychiatric Association, May 14-18 2011, Honolulu, Hawaii, USA.
(§1) The tables below show the mean difference in weight relative to the start of the open label period and to the time of randomisation and the fraction of patients experiencing equal to or more than […] during the study, i.e. potentially clinically significant increase.

Data set [3] can be described thus: Long-term effects on body weight, relapse prevention study in patients with generalised anxiety disorder. In kind it is in vivo, human. The following applies: for Δ weight / ≥7% weight gain: GAD.
Text: The recruitment of patients took place over time, and since the end of the study was defined by the last patient having completed at least 24 weeks, some patients received up to 56 weeks double-blind placebo-controlled treatment.
as §1

The conditions of data set [4]: six weeks, cited from earlier work.
For the next data set, the target named is 5-HT7 receptor (Homo sapiens, UniProt P34969). The settings on record: in vitro; cited from earlier work.
5-HT7 receptor, sequence (P34969 whole entry): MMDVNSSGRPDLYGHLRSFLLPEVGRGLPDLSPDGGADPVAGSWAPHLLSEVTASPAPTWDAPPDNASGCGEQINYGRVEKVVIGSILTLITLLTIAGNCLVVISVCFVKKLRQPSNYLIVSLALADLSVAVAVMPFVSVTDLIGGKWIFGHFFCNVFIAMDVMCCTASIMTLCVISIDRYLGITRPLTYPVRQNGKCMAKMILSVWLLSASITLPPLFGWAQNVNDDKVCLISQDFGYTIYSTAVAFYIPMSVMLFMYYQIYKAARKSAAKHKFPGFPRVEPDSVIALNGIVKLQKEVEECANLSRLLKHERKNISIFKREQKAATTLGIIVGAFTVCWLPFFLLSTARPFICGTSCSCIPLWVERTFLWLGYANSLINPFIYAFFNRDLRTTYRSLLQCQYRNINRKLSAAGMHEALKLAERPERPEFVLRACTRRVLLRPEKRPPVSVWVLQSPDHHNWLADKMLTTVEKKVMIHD
For the next data set, the target named is 5-HT transporter (Homo sapiens, UniProt P31645). The settings on record: in vitro; cited from earlier work.
5-HT transporter, sequence (P31645 whole entry, species assumed): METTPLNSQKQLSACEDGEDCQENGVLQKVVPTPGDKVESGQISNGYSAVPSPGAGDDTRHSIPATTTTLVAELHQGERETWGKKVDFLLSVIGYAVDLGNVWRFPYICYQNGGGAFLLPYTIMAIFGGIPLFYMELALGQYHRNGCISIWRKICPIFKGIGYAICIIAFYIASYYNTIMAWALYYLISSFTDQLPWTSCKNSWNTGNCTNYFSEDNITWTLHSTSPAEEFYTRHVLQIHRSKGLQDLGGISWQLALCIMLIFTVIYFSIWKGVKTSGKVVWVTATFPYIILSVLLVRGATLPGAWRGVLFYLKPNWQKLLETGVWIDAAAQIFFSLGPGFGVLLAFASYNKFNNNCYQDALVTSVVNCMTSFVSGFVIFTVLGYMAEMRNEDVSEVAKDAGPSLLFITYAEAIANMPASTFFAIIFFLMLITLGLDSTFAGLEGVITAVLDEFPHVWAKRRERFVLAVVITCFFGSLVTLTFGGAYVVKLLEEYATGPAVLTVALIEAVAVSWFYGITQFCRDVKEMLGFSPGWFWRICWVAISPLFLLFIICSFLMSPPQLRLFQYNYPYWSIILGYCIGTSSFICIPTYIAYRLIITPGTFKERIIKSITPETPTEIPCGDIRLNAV
The next data set deals with 5-HT1B receptor (Homo sapiens, UniProt P28222). The following applies: in vitro; cited from earlier work.
5-HT1B receptor, sequence (P28222 whole entry): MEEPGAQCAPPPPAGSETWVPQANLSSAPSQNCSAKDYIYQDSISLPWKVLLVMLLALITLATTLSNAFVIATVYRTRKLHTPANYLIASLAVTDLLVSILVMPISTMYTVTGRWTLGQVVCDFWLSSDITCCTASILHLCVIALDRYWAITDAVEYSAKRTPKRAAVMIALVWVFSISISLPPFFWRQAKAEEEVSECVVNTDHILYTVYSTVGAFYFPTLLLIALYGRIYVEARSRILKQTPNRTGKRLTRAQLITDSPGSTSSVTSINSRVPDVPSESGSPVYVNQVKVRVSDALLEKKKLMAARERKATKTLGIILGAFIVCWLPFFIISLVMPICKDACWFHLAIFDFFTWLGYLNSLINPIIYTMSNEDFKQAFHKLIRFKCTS
For data set [5], the system named is neurotransmitters serotonin, noradrenalin, dopamine, acetylcholine and histamine. The following applies: in vivo nonclinical; cited from earlier work.
The next data set has as its target T1, 5-HT3 receptor (Homo sapiens, UniProt P46098).
T1 sequence (P46098 24-478): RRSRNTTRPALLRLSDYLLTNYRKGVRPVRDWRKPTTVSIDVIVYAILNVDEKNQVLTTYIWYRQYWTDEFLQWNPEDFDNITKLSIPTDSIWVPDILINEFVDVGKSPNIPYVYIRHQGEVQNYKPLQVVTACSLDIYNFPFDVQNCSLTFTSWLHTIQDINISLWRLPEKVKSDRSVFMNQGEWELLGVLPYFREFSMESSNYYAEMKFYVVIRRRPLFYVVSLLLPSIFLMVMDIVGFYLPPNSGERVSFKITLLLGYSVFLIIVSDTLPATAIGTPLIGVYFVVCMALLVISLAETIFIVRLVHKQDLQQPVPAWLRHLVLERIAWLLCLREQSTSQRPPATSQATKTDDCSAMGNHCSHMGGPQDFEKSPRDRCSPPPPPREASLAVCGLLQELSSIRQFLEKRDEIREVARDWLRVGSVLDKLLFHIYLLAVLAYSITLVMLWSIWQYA
The following applies: in vitro; cited from earlier work.

The conditions of data set [6]: long-term (up to two years) relapse prevention study; cited from earlier work.
The conditions of data set [7]: OCD patients; end of 2.5 years study; cited from earlier work.
The conditions of data set [8]: long-term study (26-32 weeks); cited from earlier work.
The conditions of data set [9]: 324 patients, eight weeks; cited from earlier work.
The conditions of data set [10]: six week study; cited from earlier work.
The conditions of data set [11]: 566 patients, eight weeks; cited from earlier work.
Where [12] appears, read: week 12, relative to start of open label period (t = 0), 204 patients.
Where [13] appears, read: week 24, relative to start of open label period (t = 0), 199 patients.
[14] abbreviates: week 24, relative to time of randomisation (t = 12 weeks), 199 patients.
Where [15] appears, read: week 36, relative to start of open label period (t = 0), 157 patients.
The mark [16] stands for this setting: week 36, relative to time of randomisation (t = 12 weeks), 157 patients.
Setting [17] is: week 48, relative to start of open label period (t = 0), 90 patients.
[18] abbreviates: week 48, relative to time of randomisation (t = 12 weeks), 90 patients.
Setting [19] is: week 60, relative to start of open label period (t = 0), 52 patients.
Setting [20] is: week 60, relative to time of randomisation (t = 12 weeks), 52 patients.
[21] abbreviates: week 72, relative to start of open label period (t = 0), 19 patients.
[22] abbreviates: week 72, relative to time of randomisation (t = 12 weeks), 19 patients.
The mark [23] stands for this setting: week 76, relative to start of open label period (t = 0), 3 patients.
The mark [24] stands for this setting: week 76, relative to time of randomisation (t = 12 weeks), 3 patients.
Setting [25] is: week 20, relative to start of open label period (t = 0), 227 patients.
Setting [26] is: week 32, relative to start of open label period (t = 0), 220 patients.
Where [27] appears, read: week 32, relative to time of randomisation (t = 20 weeks), 221 patients.
Setting [28] is: week 44, relative to start of open label period (t = 0), 179 patients.
[29] abbreviates: week 44, relative to time of randomisation (t = 20 weeks), 180 patients.
The mark [30] stands for this setting: week 56, relative to start of open label period (t = 0), 84 patients.
Setting [31] is: week 56, relative to time of randomisation (t = 20 weeks), 84 patients.
[32] abbreviates: week 68, relative to start of open label period (t = 0), 28 patients.
Where [33] appears, read: week 68, relative to time of randomisation (t = 20 weeks), 28 patients.
The mark [34] stands for this setting: week 76, relative to start of open label period (t = 0), 4 patients.
The mark [35] stands for this setting: week 76, relative to time of randomisation (t = 20 weeks), 4 patients.

On to `Cc1ccc(Sc2ccccc2N2CCNCC2)c(C)c1` (racemic) [DL lactate salt of Compound I, DL-lactate salt of 1-[2-(2,4-dimethylphenylsulphanyl)-phenyl]piperazine], for which the solubility entry in data set [1] is reported as “high solubility”.

For the compound `Cc1ccc(Sc2ccccc2N2CCNCC2)c(C)c1` [Compound I HBr, 1-[2-(2,4-dimethyl-phenylsulfanyl)phenyl]piperazine HBr], the “weight gain versus placebo after long-term treatment” value in data set [2] (MDD patients, data of tables 1 and 2) is “no meaningful difference”; in data set [3] (combined data of tables 1-4 (MDD and GAD patients)) it was “no meaningful difference”. The Δ weight in data set [2] (setting [12]) is reported as 0.0 kg; in data set [2] (setting [13]) it was 0.3 kg; in data set [2] (setting [14]), 0.4 kg; in data set [2] (setting [15]), 0.6 kg; in data set [2] (setting [16]), 0.6 kg; in [2] (setting [17]) it was 0.7 kg. In addition, the Δ weight in data set [2] (setting [18]) is 0.9 kg; in [2] (setting [19]), 0.4 kg; in data set [2] (setting [20]) it was 0.8 kg; in data set [2] (setting [21]), -0.2 kg; in data set [2] (setting [22]) it was 0.3 kg; in data set [2] (setting [23]) it was -2.3 kg. In addition, the Δ weight in data set [2] (setting [24]) is -0.8 kg; in [3] (setting [25]), 0.3 kg; in data set [3] (setting [26]), 0.5 kg; in [3] (setting [27]) it was 0.3 kg; in data set [3] (setting [28]), 0.8 kg; in data set [3] (setting [29]), 0.5 kg. Further, the Δ weight in data set [3] (setting [30]) is recorded as 1.5 kg; in data set [3] (setting [31]) it was 1.1 kg; in data set [3] (setting [32]) it was 1.5 kg; in [3] (setting [33]), 1.7 kg; in [3] (setting [34]), 0.9 kg; in data set [3] (setting [35]) it was 1.6 kg. Also, the “≥7% weight gain” value in data set [2] (setting [12]) turned out to be 2.0%; in data set [2] (setting [13]) it was 6.5%; in [2] (setting [14]) it was 2.0%; in data set [2] (setting [15]), 8.9%; in [2] (setting [16]), 6.4%; in data set [2] (setting [17]), 8.9%. Also, the “≥7% weight gain” value amounted to 8.9% in data set [2] (setting [18]); 9.6% in data set [2] (setting [19]); 13.5% in data set [2] (setting [20]); 10.5% in data set [2] (setting [21]); 10.5% in data set [2] (setting [22]); 0.0% in data set [2] (setting [23]). Moreover, the “≥7% weight gain” value in [2] (setting [24]) was 0.0%; in data set [3] (setting [25]) it was 2.6%; in data set [3] (setting [26]), 3.6%; in data set [3] (setting [27]), 0.9%; in data set [3] (setting [28]), 8.4%; in data set [3] (setting [29]), 4.4%. For the same compound, the “≥7% weight gain” value in data set [3] (setting [30]) was 17.9%; in data set [3] (setting [31]), 10.7%; in data set [3] (setting [32]), 10.7%; in [3] (setting [33]), 10.7%; in data set [3] (setting [34]) it was 0.0%; in data set [3] (setting [35]), 0.0%.

`Cc1ccc(Sc2ccccc2N2CCNCC2)c(C)c1` [Compound I, 1-[2-(2,4-dimethyl-phenylsulfanyl)phenyl]piperazine]: in data set [4] (MDD patients), the “changes in clinical laboratory results, vital signs, weight, or ECG parameters” value is recorded as “no clinically relevant changes”. In addition, the “treatment of depressive and anxious symptoms versus placebo” value in data set [4] (approximately 100 patients in each arm, MDD) was “separates significantly from placebo”. In addition, at 5-HT7 receptor, the “activity at 5-HT7 receptor” value was “antagonist”. Also, at 5-HT transporter, the “activity at 5-HT transporter” value was “inhibitor”. The “activity at 5-HT1B receptor” value on 5-HT1B receptor is reported as “partial agonist”. Besides, the “levels of serotonin, noradrenalin, dopamine, acetylcholine and histamine in specific areas of the brain” value in data set [5] is “enhances levels”. In addition, the “activity at 5-HT3 receptor” value at 5-HT3 receptor is recorded as “antagonist”.

With `CN(C)CCC=C1c2ccccc2CCc2ccccc21` [amitriptyline], the “proportion of patients showing a PCS increase in body weight” value in data set [6] is reported as 22%.

In the case of `CN(C)CCCC1(c2ccc(F)cc2)OCc2cc(C#N)ccc21` (stereo not shown) [citalopram], in data set [7], the “percentage of patients with PCS weight increase (7% or above compared to baseline)” value is recorded as 14.3%.

Take `CN(C)CCCN1c2ccccc2CCc2ccc(Cl)cc21` [clomiptramine]: the “percentage of patients with PCS weight increase (7% or above compared to baseline)” value in data set [7] is given as 34.8%.

For `CNCCC(Oc1ccc(C(F)(F)F)cc1)c1ccccc1` (stereo not shown) [fluoxetine], the “percentage of patients with PCS weight increase (7% or above compared to baseline)” value in data set [7] is recorded as 8.7%. Moreover, in data set [8], the “proportion of patients showing a PCS increase in body weight” value is 6.6%.

As to `Fc1ccc([C@@H]2CCNC[C@H]2COc2ccc3c(c2)OCO3)cc1` [paroxetine], in data set [9], the effects on weight entry is “no substantial effects on weight”. In addition, the weight gain entry in [10] was “no weight gain was noted”. Also, the “percentage of patients with PCS weight increase (7% or above compared to baseline)” value in [7] was 14.3%. Also, the weight change entry in data set [11] is recorded as “small weight loss”. Besides, the “proportion of patients showing a PCS increase in body weight” value in data set [8] is 25.5%.

Take `CN[C@H]1CC[C@@H](c2ccc(Cl)c(Cl)c2)c2ccccc21` [sertraline]: the “percentage of patients with PCS weight increase (7% or above compared to baseline)” value in data set [7] is recorded as 4.5%. For the same compound, in data set [8], the “proportion of patients showing a PCS increase in body weight” value is reported as 4.2%.
